In this test the target is T1, PAK4 (Homo sapiens, UniProt O96013).
T1 construct: purchased Thermo Fisher Scientific (Life Technologies) SelectScreen
In words: SelectScreen Z'LYTE. It counts as biochemical. Put shortly: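 SelectScreen broad panel; activity (Z'LYTE, Adapta) plus binding formats. ATP: Km app for CSF1R Z'LYTE; 10 for CAMK1 Adapta. Readout = % per kinase.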

This passage reports inhibition results from article PMC6934184, “Selective DNA-PKcs inhibition extends the therapeutic index of localized radiotherapy and chemotherapy” (The Journal of Clinical Investigation, 2019).

T1 sequence (O96013 whole entry): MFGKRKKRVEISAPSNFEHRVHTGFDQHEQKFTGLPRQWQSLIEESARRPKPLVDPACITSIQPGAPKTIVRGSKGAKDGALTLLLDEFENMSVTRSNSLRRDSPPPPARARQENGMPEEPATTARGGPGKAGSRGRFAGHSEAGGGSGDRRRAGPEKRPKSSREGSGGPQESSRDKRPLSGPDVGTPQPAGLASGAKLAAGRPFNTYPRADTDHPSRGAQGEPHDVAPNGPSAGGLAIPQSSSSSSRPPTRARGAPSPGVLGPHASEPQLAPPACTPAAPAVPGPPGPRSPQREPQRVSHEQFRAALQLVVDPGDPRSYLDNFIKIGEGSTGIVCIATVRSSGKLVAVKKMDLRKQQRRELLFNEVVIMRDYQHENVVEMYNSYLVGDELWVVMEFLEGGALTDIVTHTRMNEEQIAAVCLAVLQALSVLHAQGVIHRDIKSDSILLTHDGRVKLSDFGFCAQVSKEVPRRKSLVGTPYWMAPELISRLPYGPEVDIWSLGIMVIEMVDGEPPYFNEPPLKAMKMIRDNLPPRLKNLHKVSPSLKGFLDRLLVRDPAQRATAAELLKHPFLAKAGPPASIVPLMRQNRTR

For the compound `CN(C(=O)CN1CCOCC1)c1ccc2sc3c(-c4cccc5c(=O)cc(N6CC7CCC(C6)O7)oc45)cccc3c2c1` [NU5455], the inhibition at 1 µM is -3.3%.
